What was measured:
[1] = molecular target: T1, Dimer of Gag-Pol polyprotein [501-599] (Human immunodeficiency virus 1, UniProt P03367); assay: Enzyme Inhibition Assay; conditions: pH 5.5; 23 °C
T1 construct: 501-599
Experimental: (§1) Enzyme assay was performed at room temperature on a microplate reader (Safire2TM) using black 96-well microtiter plates purchased from Nunc. Inhibitors and substrates were previously dissolved in 4% DMSO. The hydrolysis of the substrates was recorded as increase in fluorescence intensity. IC50 values were generated by nonlinear regression analysis from plots of vi/v0 versus inhibitor concentration, in which vi is the velocity in presence, and v0 the velocity in the absence of an inhibitor. The kinetic constants were determined by the method of Lineweaver and Burk, and Ki values were consecutively calculated from the following equation: Ki = IC50/[1 + (S/Km)]. The overall error of the assays is estimated to be +/-40%.

Pepsin A = Pepsin A (Sus scrofa, UniProt P00791); assay: Enzyme Inhibition Assay; conditions: 25 °C
Experimental: as §1

Sequence of Pepsin A (P00791 whole entry): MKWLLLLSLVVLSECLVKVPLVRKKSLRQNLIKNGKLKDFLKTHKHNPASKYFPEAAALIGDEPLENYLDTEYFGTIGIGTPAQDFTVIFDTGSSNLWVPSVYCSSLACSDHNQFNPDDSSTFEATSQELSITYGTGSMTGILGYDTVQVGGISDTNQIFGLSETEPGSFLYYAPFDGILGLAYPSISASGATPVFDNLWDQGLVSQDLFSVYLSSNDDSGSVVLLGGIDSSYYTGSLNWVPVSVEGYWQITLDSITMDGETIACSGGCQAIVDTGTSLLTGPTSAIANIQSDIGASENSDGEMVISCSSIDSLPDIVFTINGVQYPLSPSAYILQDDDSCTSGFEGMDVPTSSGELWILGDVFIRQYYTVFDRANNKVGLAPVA

Row | SMILES | IC50 [1] [µM] | IC50 (Pepsin A) [µM]
1 | O=C(Cc1ccccc1)N(CCCNCCCN(Cc1ccccc1)C(=O)Cc1ccccc1)Cc1ccccc1 [carboxamide, 12c] | > 250 | > 250
2 | O=C(Cc1ccccc1)N(CCCNCCN(Cc1ccccc1)C(=O)Cc1ccccc1)Cc1ccccc1 [carboxamide, 12b] | > 250 | > 250
3 | O=C(Cc1ccccc1)N(CCNCCN(Cc1ccccc1)C(=O)Cc1ccccc1)Cc1ccccc1 [carboxamide, 12a] | > 250 | > 250
4 | O=S(=O)(c1ccccc1)N(CCCNCCCN(Cc1ccccc1)S(=O)(=O)c1ccccc1)Cc1ccccc1 [phenyl-substituted sulfonamides, 6c] | > 250 | > 250
5 | Nc1ccc(S(=O)(=O)N(CCCNCCN(Cc2ccccc2)S(=O)(=O)c2ccc(N)cc2)Cc2ccccc2)cc1 [phenyl-substituted sulfonamides, 6e] | > 250 | > 250
6 | Nc1ccc(S(=O)(=O)N(CCCNCCCN(Cc2ccccc2)S(=O)(=O)c2ccc(N)cc2)Cc2ccccc2)cc1 [phenyl-substituted sulfonamides, 6f] | > 250 | –

Source: BindingDB's records for doi:10.1016/j.bmc.2008.08.012 (Philipps University Marburg, 2008)
